Values of other authors in patent US7585869B2, “Substituted heterocylces for the treatment of abnormal cell growth” (Pfizer, Inc., priority 2003, dated 2009).

Legend:
[1] = test system: transplanted human mammary carcinoma which expresses epidermal growth factor receptor tyrosine kinase (EGFR); settings: athymic nude mice
[2] = test system: carcinoma which does not express the EGF receptor

In the case of `O=CN/C=C/c1cc(O)ccc1O` [erbstatin], the “effect on growth of transplanted human mammary carcinoma” value [1] is listed as “selectively attenuates the growth” and the “effect on growth of another carcinoma” value [2] is listed as “without effect on the growth”.
